From patent publication US20260285853A1, “COMPOUNDS AND METHODS FOR MODULATING SPLICING” (REMIX THERAPEUTICS INC., priority 2023, published 2026)

Experiments:
Type in all cases: cell-based
[1] = test system: MYB mRNA; assay: Splicing RT-qPCR assay (THP), Table 2A; settings: Table 2A (THP); for AC50: AJ mRNA increase, read-out: MYB AJ (increase in alternative junction mRNA, AC50); for IC50: CJ mRNA decrease, read-out: MYB CJ (decrease in canonical junction mRNA, IC50)
[2] = test system: HTT mRNA; assay: Splicing RT-qPCR assay (THP), Table 2A; settings: Table 2A (THP); for AC50: AJ mRNA increase, read-out: HTT AJ (increase in alternative junction mRNA, AC50); for IC50: CJ mRNA decrease, read-out: HTT CJ (decrease in canonical junction mRNA, IC50)
[3] = test system: MYB mRNA; assay: Splicing RT-qPCR assay, canonical (CJ) and alternative (AJ) junction mRNA, K562 cells; settings: Homo sapiens, K562.3 cells, 24 hours; for AC50: read-out: MYB AJ (AC50, increase in AJ mRNA); for IC50: read-out: MYB CJ (IC50, decrease in CJ mRNA)
In short: (§1)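 Readout is one-step RT-qPCR of canonical and alternative exon junctions, housekeeper-normalized (GAPDH or GUSB), ΔΔCt against DMSO giving RQ and percentage response over set ΔCt assay windows. Compounds dosed 24 h to K562 cells, 11 points, 3-fold, max 10 uM, DMSO ≤0.25%.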

[4] = test system: HTT mRNA; assay: as above; settings: Homo sapiens, K562.3 cells, 24 hours; for AC50: read-out: HTT AJ (AC50, increase in AJ mRNA); for IC50: read-out: HTT CJ (IC50, decrease in CJ mRNA)
In short: as §1

Compound | AC50 [1] [µM] | IC50 [1] [µM] | AC50 [2] [µM] | IC50 [2] [µM] | AC50 [3] [µM] | IC50 [3] [µM] | AC50 [4] [µM] | IC50 [4] [µM]
CN[C@H]1C[C@@H](C)N(c2ccc(C(=O)Nc3cc(F)c4nc(C)cn4c3)c3nn(C)cc23)C1 (single isomer, unassigned) [Compound 128] | 0.1 to 1 | 0.1 to 1 | 1 to 10 | 1 to 10 | 0.1 to 1 | 0.1 to 1 | 1 to 10 | 0.1 to 1
CN[C@H]1CCN(c2ccc(C(=O)Nc3cc(F)c4nc(C)cn4c3)c3nn(C)cc23)[C@H]1C (single isomer, unassigned) [Compound 152] | > 10 | 1 to 10 | > 10 | > 10 | 1 to 10 | 1 to 10 | > 10 | > 10
CN[C@@H]1CCN(c2ccc(C(=O)Nc3cc(F)c4nc(C)cn4c3)c3nn(C)cc23)[C@@H]1C (single isomer, unassigned) [Compound 153] | < 0.1 | < 0.1 | 0.1 to 1 | 0.1 to 1 | < 0.1 | < 0.1 | 1 to 10 | 0.1 to 1
CN[C@H]1CCN(c2ccc(C(=O)Nc3cc(F)c4nc(C)cn4c3)c3nn(C)cc23)[C@@H]1C (single isomer, unassigned) [Compound 154] | 0.1 to 1 | 1 to 10 | > 10 | > 10 | 0.1 to 1 | 0.1 to 1 | > 10 | > 10
COCCN[C@@H]1CCN(c2ccc(C(=O)Nc3cc(F)c4nc(C)cn4c3)c3nn(C)cc23)C1 [Compound 113, N-(8-fluoro-2-methyl-imidazo[1,2-a]pyridin-6-yl)-4-[(3R)-3-(2-methoxyethylamino)pyrrolidin-1-yl]-2-methyl-indazole-7-carboxamide] | 0.1 to 1 | 0.1 to 1 | > 10 | > 10 | 0.1 to 1 | 0.1 to 1 | > 10 | > 10
COCC1(N[C@H]2CCN(c3ccc(C(=O)Nc4cc(F)c5nc(C)cn5c4)c4nn(C)cc34)C2)CC1 [Compound 118, (S)—N-(8-fluoro-2-methylimidazo[1,2-a]pyridin-6-yl)-4-(3-((1-(methoxymethyl)cyclopropyl)amino)pyrrolidin-1-yl)-2-methyl-2H-indazole-7-carboxamide] | 1 to 10 | 0.1 to 1 | > 10 | > 10 | 1 to 10 | 1 to 10 | > 10 | 1 to 10
COCC1(N[C@@H]2CCN(c3ccc(C(=O)Nc4cc(F)c5nc(C)cn5c4)c4nn(C)cc34)C2)CC1 [Compound 119, (R)—N-(8-fluoro-2-methylimidazo[1,2-a]pyridin-6-yl)-4-(3-((1-(methoxymethyl)cyclopropyl)amino)-pyrrolidin-1-yl)-2-methyl-2H-indazole-7-carboxamide] | 0.1 to 1 | 0.1 to 1 | > 10 | > 10 | 0.1 to 1 | 0.1 to 1 | > 10 | 1 to 10
CN[C@@H]1C[C@@H](C)N(c2ccc(C(=O)Nc3cc(F)c4nc(C)cn4c3)c3nn(C)cc23)C1 [Compound 129, N-(8-fluoro-2-methyl-imidazo[1,2-a]pyridin-6-yl)-2-methyl-4-[(2R,4R)-2-methyl-4-(methylamino)pyrrol-idin-1-yl]indazole-7-carboxamide] | 0.1 to 1 | < 0.1 | 1 to 10 | 1 to 10 | 0.1 to 1 | 0.1 to 1 | 1 to 10 | 1 to 10
CCN[C@@H]1CCN(c2cc(O)c(C(=O)Nc3cc(F)c4nc(C)cn4c3)c3nn(C)cc23)C1 [Compound 144, 4-[3-(ethylamino)pyrrolidin-1-yl]-N-(8-fluoro-2-methyl-imidazo[1,2-a]pyridin-6-yl)-6-hydroxy-2-methyl-indazole-7-carboxamide] | < 0.1 | < 0.1 | > 10 | > 10 | < 0.1 | < 0.1 | > 10 | > 10
CN[C@H]1CCN(c2c(O)cc(C(=O)Nc3cc(F)c4nc(C)cn4c3)c3nn(C)cc23)C1 [Compound 149, N-(8-fluoro-2-methyl-imidazo[1,2-a]pyridin-6-yl)-5-hydroxy-2-methyl-4-[(3S)-3-(methylamino)pyrrolidin-1-yl]-indazole-7-carboxamide] | > 10 | 1 to 10 | > 10 | > 10 | 1 to 10 | 1 to 10 | > 10 | 1 to 10
CN[C@@H]1CCN(c2ccc(C(=O)Nc3cc(F)c4nc(C)cn4c3)c3nn(C)cc23)[C@H]1C [Compound 155, N-(8-fluoro-2-methylimidazo-[1,2-a]pyridin-6-yl)-2-methyl-4-[(2S,3R)-2-methyl-3-(methylamino)-pyrrolidin-1-yl]indazole-7-carboxamide] | 1 to 10 | > 10 | > 10 | > 10 | > 10 | 1 to 10 | > 10 | > 10
Cc1cn2cc(NC(=O)c3c(F)cc(N4CC[C@H](NCC56CC(CO5)C6)C4)c4cn(C)nc34)cc(F)c2n1 [Compound 157, 6-fluoro-N-(8-fluoro-2-methyl-imidazo[1,2-a]pyridin-6-yl)-2-methyl-4-[(3S)-3-(2-oxabicyclo[2.1.1]hexan-1-ylmethylamino)pyrrolidin-1-yl]indazole-7-carboxamide] | < 0.1 | < 0.1 | > 10 | > 10 | < 0.1 | 0.1 to 1 | > 10 | > 10
CN[C@H]1CCN(c2ccc(C(=O)Nc3cc(F)c4nc(C)cn4c3)c3c2nnn3C)C1 [Compound 160, N-(8-fluoro-2-methyl-imidazo[1,2-a]pyridin-6-yl)-3-methyl-7-[(3S)-3-(methylamino)-pyrrolidin-1-yl]benzotriazole-4-carboxamide] | > 10 | > 10 | > 10 | > 10 | > 10 | > 10 | > 10 | > 10
CN[C@H]1CCN(c2ccc(C(=O)Nc3cc(F)c4nc(C)cn4c3)c3nn(C)nc23)C1 [Compound 163, (S)-N-(8-fluoro-2-methylimidazo-[1,2-a]pyridin-6-yl)-2-methyl-7-(3-(methylamino)pyrrolidin-1-yl)-2H-benzo[d]-[1,2,3]triazole-4-carboxamide] | 0.1 to 1 | 1 to 10 | 1 to 10 | 0.1 to 1 | 0.1 to 1 | 0.1 to 1 | 0.1 to 1 | 0.1 to 1
CN[C@H]1CCN(c2ccc(C(=O)Nc3cc(F)c4nc(C)cn4c3)c3nnn(C)c23)C1 [Compound 166, (S)-N-(8-fluoro-2-methylimidazo-[1,2-a]pyridin-6-yl)-1-methyl-7-(3-(methylamino)pyrrolidin-1-yl)-1H-benzo[d]-[1,2,3]triazole-4-carboxamide] | 0.1 to 1 | 1 to 10 | > 10 | > 10 | 0.1 to 1 | 0.1 to 1 | > 10 | > 10
